# Patent publication US20230416245A1, “ADENOSINE ANALOGS FOR THE TREATMENT OF DISEASE” (BIOINTERVENE, INC., priority 2020, published 2023)
# Experiments:
# [1] = target: T1, human adenosine A3 receptor (Homo sapiens (Human), UniProt P0DMS8); experiment: Adenosine receptor binding assay ([125I]-AB-MECA competition); conditions: inhibition of 0.15 nM [125I]-AB-MECA binding, membranes of cells expressing human A3 receptor; read-out: hA3 Ki: Ki
# Text: Example 30: Adenosine Receptor Binding Assay
# Materials and Reference Compounds: [^125I]-AB-MECA and [^3H]CCPA are both obtained from Amersham Biosciences (Little Chalfont, UK). IB-MECA are obtained from Tocris (Bristol, UK) and N6-cyclopentyl adenosine (CPA) is obtained from Sigma-Alrich (Poole, UK). Cell culture media, G418 and hygromycin are obtained from Invitrogen (Paisley, UK). Fetal calf serum is obtained from Perbio Science (Cheshire, UK). All other reagents are obtained from Fisher Chemicals (Loughborough, UK).
# The method followed is that of Yates L, Clark J H, Martin T J, James S, Broadley K J, Kidd E J. Radioligand binding and functional responses of ligands for human recombinant adenosine A3 receptors. Auton Autacoid Pharmacol. 2006; 26(2):191-200. Cells stably transfected with the human adenosine A3 or A1 receptor are grown in Dulbecco's modified Eagles medium with nutrient mixture F12 containing NaHCO3 and Glutamax. Media is supplemented with 10% fetal calf serum, geneticin (G418; 0.67 mg/mL), hygromycin (500 μg/mL) and adenosine deaminase (1 U/mL). Cells are maintained at 37° C. with 5% CO2 in air. Cells are harvested and homogenized in ice-cold Tris buffer [50 mM Tris, 150 mM NaCl, 1 mM ethylenediaminetetraacetic acid (EDTA), pH 7.4] supplemented with the peptidase inhibitors, 4-(2-aminoethyl)benzenesulfonylfluoride (1 mM) and bacitracin (0.1 mg/mL), using a Polytron homogenizer (3×10 s bursts). The homogenate was spun for 10 min (4° C.) at 500 g. The supernatant is retained and the pellet is re-suspended in the buffer, homogenized and spun as above. The combined supernatants are centrifuged for 15 min (4° C.) at 48,000 g. The resultant pellet is re-suspended in the buffer and centrifuged for a second time at 48,000 g. The membrane pellet is then suspended in Tris buffer containing no peptidase inhibitors or adenosine deaminase and stored at −80° C. at a protein concentration of 1 mg/mL.
# Binding Assays: Radioligand-binding assays were performed using the adenosine A3 receptor agonist [^125I]-AB-MECA and the A1 receptor agonist [^3H]CCPA. Binding assays were conducted in a total volume of 100 μL containing a 50 mM Tris, pH 7.4 buffer with or without 10 mM MgCl2, 20 μg membranes and either 0.15 nM [^125I]-AB-MECA (for the A3 receptor) or 1 nM [^3H]CCPA (for the A1 receptor). Assays were conducted at room temperature for 60 min (A1 receptor) or 120 min (A3 receptor) and terminated by the addition of 2 ml of ice-cold wash buffer (50 mM Tris, pH 7.4 with or without 10 mM MgCl2) and rapid filtration over 0.03% polyethylenimine-treated Whatman GF/C filters using a Brandel cell harvester (Semat International Ltd., St Albans, UK). Filters were then washed three times with 2 ml of ice-cold buffer. The filter-bound radioactivity were counted using a Compugamma counter (LKB Wallac, Turku, Finland). Competition experiments were performed to investigate the ability of reference compounds and embodiments of the invention to inhibit [^125I]-AB-MECA binding. Non-specific binding were determined using the respective compound at its highest concentration.
# Data Analysis: The Kd and Bmax values for binding data were calculated based upon the molar amounts of bound and free [^125I]-AB-MECA. […] IC50 and Ki values and Hill slopes for inhibition of the radioligand binding by the compounds of the invention were calculated from the ligand competition curves using the Excel spreadsheet and the Kd value calculated for either [^125I]-AB-MECA or [^3H]CCPA. The results were expressed as a percent of control specific binding and as a percent inhibition of control specific binding obtained in the presence of the compounds of the invention. The IC50 values (concentration causing a half-maximal inhibition of control specific binding) and Hill coefficients (nH) were determined by non-linear regression analysis of the competition curves generated with mean replicate values using Hill equation curve fitting: […]
# [2] = target: T1, human adenosine A3 receptor; experiment: Intracellular cAMP levels (inhibition of forskolin-stimulated cAMP production); type: cell-based
# Text: Example 31: Intracellular cAMP Levels
# The method followed is that published in Yates L, Clark J H, Martin T J, James S, Broadley K J, Kidd E J. Radioligand binding and functional responses of ligands for human recombinant adenosine A3 receptors. Auton Autacoid Pharmacol. 2006 April; 26(2):191-200.
# Materials and Cell Culture: Adenosine deaminase was obtained from Roche (Lewes, UK). Forskolin was obtained from Sigma-Aldrich (Poole, UK). The sources of other materials are provided above in Example 1. CHO-K1 cells stably transfected with the human adenosine A3 receptor were grown in Dulbecco's modified Eagles medium with nutrient mixture F12 containing NaHCO3 and Glutamax. Media was supplemented with 10% fetal calf serum, geneticin (G418; 0.67 mg/mL), hygromycin (500 μg/mL) and adenosine deaminase (1 U/mL). Cells were maintained at 37° C. with 5% CO2 in air.
# cAMP Measurements: Intracellular cAMP production was measured directly using a non-acetylation cAMP enzyme immunoassay (Amersham Biosciences, Little Chalfont, UK). Cultured CHO cells expressing human adenosine A3 receptors were allowed to plate overnight in 96-well plates in culture medium containing adenosine deaminase. Twenty-four hours later, they were incubated with adenosine analogues or compounds of the invention (0.1 nM-1 μM) for 5 min at 37° C., followed by incubation with forskolin (10 μM) for 10 min. The cells were then lysed with 200 μL of lysis reagent 1 provided with the kit for 10 min to release intracellular cAMP. Aliquots of the supernatants were then transferred to a 96-well microtitre plate coated with donkey anti-rabbit IgG; 100-μL cAMP standards (12.5-3200 fmol/well) were also added to the microtitre plate; 100 μL of rabbit anti-cAMP antibody was added to all wells and incubated at 2-5° C. for 2 h. The antiserum was made up in lysis reagent 2, which sequesters the key component in lysis reagent 1 and ensures that cAMP is free for subsequent analysis. Then 50 μL of cAMP peroxidase conjugate was added to all wells and left to incubate for 60 min at 2-5° C. to allow competition for the antibody between the un-labelled and horse radish peroxidase (HRP)-labelled cAMP. Wells were then washed with buffer and 150 μL of enzyme substrate containing 3,3′,5,5′-tetramethylbenzidine/hydrogen peroxide in 20% (v/v) dimethylformamide was added to each well and left to incubate for 60 min on a Titramax 100 microtitre plate shaker (Heidolph Instruments, Schwabach, Germany) at room temperature for color development. The reaction was stopped by the addition of 100 μL of 1 M sulfuric acid and the optical density (OD) read at 450 nm on a spectrophotometric MRX microplate reader (Dynex Technologies, Chantilly, VA, USA).
# Analyses: Each sample/standard was analyzed in duplicate and the resulting OD values averaged. The percent bound (B/Bo) for each standard and sample was calculated using the following relationship: […]
# where B is the specific OD for standard/sample and Bo is the specific OD for the zero standard. A standard curve was generated by plotting % B/Bo as a function of the log fmol cAMP standard per well. The fmol per well value for cAMP in each sample was then read from the graph. The results are expressed as a percent of control agonist response: (measured response/control response)*100 in the presence of the compounds of the invention. Concentration-response curves for inhibition of cAMP production were constructed for all compounds of the invention and reference compounds. The EC50 values (concentration producing a half-maximal response) were determined by non-linear regression analysis of the concentration-response curves generated with mean replicate values using Hill equation curve fitting, according to the equation:
# where Y=response, A=left asymptote of the curve, D=right asymptote of the curve, C=compound concentration, and C50=EC50, and nH=slope factor. […]
# ADORA3 = ADORA3 (Homo sapiens (Human), UniProt P0DMS8); experiment: Intracellular calcium release assay (FLIPR); type: cell-based
# Procedure: Example 32: Intracellular Calcium Release Assay
# Cell Culture: The table below lists the cell lines used that stably express the 4 subtypes of adenosine receptors, along with the growth medium used for each:
# For experiments with the ADORA1- and ADORA3-expressing cells, the medium was aspirated and the cells washed twice with 10 mL DPBS. Two mL of trypsin was added and incubated at 37° C. for 1 minute. Then 10 mL of platting media was added to terminate the digestion and 1 mL of the solution was taken out for cell counting. ADORA2A- and ADORA2B-expressing cells were thawed rapidly in a 37° C. water bath. Cell suspensions were transferred to 50 mL conical tubes. Plating media was added to the 10 mL mark and then 1 mL taken out for cell counting. The 50 mL tubes containing the various types of cells were centrifuged at 1000 g. Then the supernatants were aspirated, being careful not to aspirate the cells. The cell pellets were resuspended in 3-5 mL platting media, then 0.5 mL was taken out for cell counting. Then the cell suspension was diluted to 1×10^6 cells/mL (20,000 cells per 20 μL per well) in platting medium, and cells were seeded into 384-well cell plates (Greiner-781946). The 384-well cell plate was placed in a 37° C./5% CO2 incubator (Thermo-371, Thermo Scientific) for 16-20 hours.
# Preparation of the intracellular calcium imaging agent (Fluo-4 Direct™ Calcium Assay Kit, Invitrogen-F10471, Thermo Scientific): One mL of FLIPR Assay Buffer was added to 77 mg probenecid to make a 250 mM solution, which was used fresh for each day. One vial of Fluo-4 Direct™ crystals was thawed and 10 mL of FLIPR Assay Buffer was added to the vial. 0.2 mL of probenecid was added to each 10 mL vial of Fluo-Direct™ solution, such that the final assay concentration was 2.5 mM. It was vortexed, left to stand >5 min and protected from light. The dye was prepared fresh each day.
# Compound Preparation: Compound plates were prepared as follows. First, the test compound was diluted to prepare a 2 mM solution and then 10-point 3-fold serial dilutions were made using ECHO (ECHO 555, LabCyte), then 900 nL was transferred to the compound plate. For all targets, the final top concentration of the test compound was […]. For agonist reference compounds, 10-point and 3-fold serial dilutions were made, then 900 nL was transferred to the assay plate. Then 30 μL of assay buffer was added to the compound plate and then the plate was centrifuged at 1000 rpm for 1 min.
# FLIPR Assay: Cell plates were removed from the incubator, to which were added 20 μL 2×Fluo-4 Direct™ solution, then the plates were reincubated in a 5% CO2, 37° C. incubator for 50 min and at RT for 10 min. To run the protocol on the Fluorescent Imaging Plate Reader (FLIPR) TETRA (MD-FT0249, Molecular Devices, Inc.), 10 μL of assay buffer was transferred from the 384-well plate (Greiner-781280) to the cell plates and then the fluorescence signal was read. Then 10 μL of compound solution was transferred from the compound plate to the cell plates and the fluorescence signal was read. The “Max-Min” was calculated, starting from Read 91 to the maximum allowed. For agonists, activation %=(RLU−LC)/(HC−LC)*100, based on the following: RLU=relative light unit, 91 to maximum allowed signal; HC=average signal of the high concentration of agonist; LC=average signal of DMSO well. The data were fitted using GraphPad Prism 5, using the model “log(agonist) vs. response—Variable slope” to determine the EC50 value. The receptor efficacy of the test compound relative to the agonist NECA was calculated as a percentage (%) of the response to […]. Table 10 includes EC50 values for compounds described herein.
# T1 sequence (P0DMS8 whole entry): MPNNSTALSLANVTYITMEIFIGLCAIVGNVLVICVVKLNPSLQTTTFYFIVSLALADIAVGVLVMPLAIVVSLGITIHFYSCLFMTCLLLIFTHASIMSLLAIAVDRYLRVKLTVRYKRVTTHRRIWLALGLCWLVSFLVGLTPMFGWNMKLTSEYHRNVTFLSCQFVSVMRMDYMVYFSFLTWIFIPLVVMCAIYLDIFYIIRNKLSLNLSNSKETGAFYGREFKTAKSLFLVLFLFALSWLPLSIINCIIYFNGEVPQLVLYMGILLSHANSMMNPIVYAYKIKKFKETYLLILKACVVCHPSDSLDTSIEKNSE
# ADORA3, sequence (P0DMS8 whole entry): as above
SMILES,Ki [1] [nM],also measured
"CCNc1cc(Cl)nc2c1ncn2[C@H]1[C@H](O)[C@H](O)[C@]2(C(=O)NC)C[C@H]12 [Compound 59, (1S,2R,3S,4R,5S)-4-(5-chloro-7-(ethylamino)-3H-imidazo[4,5-b]pyridin-3-yl)-2,3-dihydroxy-N-methylbicyclo[3.1.0]hexane-1-carboxamide]",–,"EC50 ([2]; CHO cells expressing human adenosine A3 receptors, forskolin 10 μM): 0.11 nM; CAMP Efficacy (%) ([2]; maximal response as percentage of the response produced by 100 nM IB-MECA): 106.95%; EC50 (ADORA3; CHO-K1 cells, Fluo-4, top concentration 10 μM, read-out: Cell Calcium Assay EC50): 1.2 nM; Cell Calcium Efficacy (%) (ADORA3; percentage of the response to NECA): 103.9%"
CCCNc1cc(Cl)nc2c1ncn2[C@H]1[C@H](O)[C@H](O)[C@@H]2C[C@@H]21 [Compound 66],126,–
"O[C@@H]1[C@H](O)[C@@H]2C[C@@H]2[C@H]1n1cnc2c(NCC3CCC3)cc(Cl)nc21 [Compound 67, (1R,2R,3S,4R,5S)-4-(5-chloro-7-((cyclobutylmethyl)amino)-3H-imidazo[4,5-b]pyridin-3-yl)bicyclo[3.1.0]hexane-2,3-diol]",94.4,–
"CCNC(=O)[C@@]12C[C@@H]1[C@@H](n1cnc3c(NCC)cc(Cl)nc31)[C@H](O)[C@@H]2O [Compound 69, (1S,2R,3S,4R,5S)-4-(5-chloro-7-(ethylamino)-3H-imidazo[4,5-b]pyridin-3-yl)-N-ethyl-2,3-dihydroxybicyclo[3.1.0]hexane-1-carboxamide]",1.68,–
"CCNc1c(Cl)c(Cl)nc2c1ncn2[C@H]1[C@H](O)[C@H](O)[C@@H]2C[C@@H]21 [Compound 71, (1R,2R,3S,4R,5S)-4-(5,6-dichloro-7-(ethylamino)-3H-imidazo[4,5-b]pyridin-3-yl)bicyclo[3.1.0]hexane-2,3-diol]",456,–

# More lines, main results first:
Ki [1] [nM],SMILES,also measured
0.64,"CCCNc1cc(Cl)nc2c1ncn2[C@H]1[C@H](O)[C@H](O)C2(C(=O)NC)C[C@H]12 (stereo in doubt) [Compound 64, (1S,2R,3S,4R,5S)-4-(5-chloro-7-(propylamino) 3H-imidazo[4,5-b]pyridin-3-yl)-2,3-dihydroxy-N-methylbicyclo[3.1.0]hexane-1-carboxamide]",–
3.49,"CNC(=O)C12C[C@@H]1[C@@H](n1cnc3c(NCC4CCC4)cc(Cl)nc31)[C@H](O)[C@@H]2O (stereo in doubt) [Compound 65, (1S,2R,3S,4R,5S)-4-(5-chloro-7-((cyclobutylmethyl)amino)-3H-imidazo[4,5-b]pyridin-3-yl)-2,3-dihydroxy-N-methylbicyclo[3.1.0]hexane-1-carboxamide]",–
